Test results as given in patent publication US9464326B2, “Total and phosphorylated IL-1 receptor-associated kinase-1 and IL-1 receptor-associated kinase-4 as a biomarker for cancer progression and chemotherapy resistance” (University of Maryland, Baltimore, priority 2012, dated 2016).

Experiments:
[1] = tested on: CCRF-CEM cells; assay: Senescence gene qPCR array / RT-PCR; format: cell-based, human; details: array of 84 senescence genes, COL1A1 not validated by RT-PCR
Description: To further study the role of IRAK-1,-4 signaling in cellular senescence, we compared the expression of 84 key genes involved in the initiation and progression of senescence. […] Expression levels of CDKN1C, EGR1 and ID1 were also altered in all four T-ALL patient samples collected from IRAK-1,-4 inhibitor-treated NSG mice (FIG. 15E).

[2] = target: IRAK-4 (Homo sapiens, UniProt Q9NWZ3); details: supplier (EMD Millipore) description; cited from earlier work
IRAK-4, sequence (Q9NWZ3 whole entry): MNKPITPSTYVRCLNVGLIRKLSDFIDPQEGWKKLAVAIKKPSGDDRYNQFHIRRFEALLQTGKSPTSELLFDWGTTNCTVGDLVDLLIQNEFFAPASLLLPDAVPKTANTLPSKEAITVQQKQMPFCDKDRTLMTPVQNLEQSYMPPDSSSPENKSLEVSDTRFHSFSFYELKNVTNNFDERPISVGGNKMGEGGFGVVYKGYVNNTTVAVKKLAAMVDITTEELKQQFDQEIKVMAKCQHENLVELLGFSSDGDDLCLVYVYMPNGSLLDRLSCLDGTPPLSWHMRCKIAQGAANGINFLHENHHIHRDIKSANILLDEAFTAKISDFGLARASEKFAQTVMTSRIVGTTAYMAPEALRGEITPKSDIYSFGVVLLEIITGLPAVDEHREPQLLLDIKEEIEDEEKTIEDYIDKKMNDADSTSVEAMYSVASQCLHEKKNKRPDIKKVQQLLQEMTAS

[3] = tested on: CCRF-CEM cells; assay: Western blot of signaling proteins in CCRF-CEM; format: cell-based, human; details: 5 uM, 48 hours, FIG. 3D
Description: (FIG. 3C). […] (FIG. 3D). […] (FIG. 3D).

[4] = tested on: Malme-3M melanoma cells; assay: Apoptosis by annexin-V/PI flow cytometry in Malme-3M; format: cell-based, human
Experimental: FIG. 8. IRAK-1,-4 inhibition sensitized melanoma cells to vinblastine-mediated cytotoxicity. (A) A375 and Malme-3M melanoma cells were cultured with or without 2.5 μM of IRAK-1,-4 and in the presence varying concentrations of vinblastine, cisplatin or 5′ Fluorouracil. Forty-eight hours later apoptosis was evaluated by staining cells with annexin-V and propidium iodide and analyzed by flow cytometry. (B) A375 cells were transfected via electroporation with siRNA-IRAK-1,-4. IRAK-1 protein levels were examined by Western blotting. […], A375-psiRNA-hIRAK-1, A375-psiRNA-hIRAK-4, or cells expressing both psiRNA-hIRAK-1 and -4 were cultured in the presence of vinblastine (100 nmol/L) for 48 hours and apoptosis was examined by flow cytometry. (C) A375 melanoma cells were cultured in the presence of vehicle alone (DMSO) or various concentrations of IRAK-1,-4. Forty-eight hours later cell lysates were used to analyze the expression of levels of cleaved PARP or caspase-3 by Western blots. (D) A375 melanoma cells were cultured with or without 2.5 μM of IRAK.-1,-4 and in the presence or absence of vinblastine for 48 hrs. PARP and caspase-3 levels were determined by Western blot.
The TLR1-TLR2 ligand tripalmitoyl-S-(bis(palmitoyloxy)propyl)-Cys-Ser-(Lys)3-Lys (Pam3Cys) was purchased from Invivogen (San Diego, Calif., USA). […] In some experiments cells were treated with the indicated concentrations of IRAK.-1,-4 inhibitor and vinblastine, cisplatin, and 5-fluorouracil (Sigma-Aldrich, St. Louis, Mo.), and apoptosis was quantitated by flow cytometry after staining cells with FITC-labeled annexin-V (BD Pharmingen, San Jose, Calif.) and propidium iodide (PI; Sigma-Aldrich).

[5] = tested on: A375 cells; assay: Western blot of IRAK phosphorylation in A375; format: cell-based, human; details: Pam3CysK4 2.5 μg/ml or flagellin 100 ng/ml, 48 hours, FIG. 22B
Experimental: FIG. 22. Effects of TLR stimulation and cytokines on IRAK phosphorylation in melanoma cells. (A) A375 cells were cultured in the presence of anti-IL-18, anti-CXCL-1, (R&D Systems), anti-IL-1 (BioLegend), or mouse IgG (Sigma-Aldrich) all at 10 μg/ml. Forty-eight hours later the levels of the indicated proteins were determined by western blot. (B) A375 cells, which express p-IRAK-1 and p-IRAK-4, and G361 melanoma cells, which express very low levels of p-IRAK-1 (and express TLR5) were cultured in the presence of TLR1-TLR2 agonist (Pam3CysK4; 2.5 μg/ml) or TLR5 (flagellin; 100 ng/ml; InVivogen). Forty-eight hours later total protein was collected and the levels of the indicated proteins were examined by western blot.
Total cell extracts were prepared from melanoma cells. […] Melanoma tissue arrays were purchased from US Biomax, Inc (Rockville, Md.). For immunohistochemical staining samples were stained with mouse monoclonal anti-human phosphor-IRAK.-4 antibody (Abnova; dilution, 3.5 μg/ml) or normal mouse serum. Tissue histology sections (5-μm-thick) were deparaffinized, hydrated, heated in boiling 10 mmol/L sodium citrate (pH 6.0), for antigen retrieval, for 30 min and washed in Tris buffer. Peroxide blocking was done with 3% […] in methanol at room temperature for 15 min, followed by 10% fetal bovine serum in TBS-t for 30 min at room temperature. Primary antibody incubation was done overnight at 4° C. Secondary antibody incubation with horse anti-mouse (1:200; Vector Laboratories, Burlingame, Calif.) was done for 1 hr, followed by application of diaminobenzidine chromogen for 5 min. The slides were then counterstained with hematoxylin and topped with a coverslip. IHC specimens were analyzed using “quick score” system in which the intensity of the immunohistochemical reaction was scored by multiplying the intensity 1 (weak), 2 (moderate), and 3 (strong) and the proportion of cells staining positively 0 (<10%), 1 (10-25%), 2 (26-50%), 3 (51-75%) or 4 (>75%).

[6] = tested on: C32 melanoma cells; assay: Vinblastine-induced apoptosis in C32 (flow cytometry); format: cell-based, human; details: vinblastine 100 nM with TLR1-TLR2 ligand 2.5 μg/ml, 48 hours, FIG. 20B
Experimental: FIG. 20. Role of TLR-induced cytokines and NF-kB on cell survival. (A) A375 melanoma cells were cultured in a 48-well plates in the presence or absence of NF-kB inhibitor NF-kB inhibitor SN50 (100 nM; Anaspec) with or without vinblastine (100 nM) or Doxorubicin (0.25 μg/ml). The percentage of apoptotic cells was measured by staining cells with Annexin and PI 48 hours later and analyzed by flow cytometry. (B) C32 melanoma cells were cultured in the presence of vinblastine (100 nM) and in the […] of TLR1-TLR2 ligand (2.5 μg/ml) or the presence of supernatant from TLR1-TLR2-stimulated A375 cells. After 48 hours, apoptosis was measured by flow cytometry. (C) A375 melanoma cells were cultured in the presence or absence of vinblastine (100 nM) and IL-1 (50 ng/ml; BioLegend), IL-18 (100 ng/ml; Medical and Biological Lab) or CXCL1 (50 ng/ml; R&D Systems). Apoptosis was measured 48 hours later by flow cytometry.
Alternatively, cytokines/chemokines produced in response to TLR-IRAK signaling might also contribute to the chemoprotective effects. Supernatant from TLR-1-TLR-2 stimulated or unstimulated A375 melanoma cells was added to the C32 melanoma cells in the presence or absence of vinblastine. Another group of cells were treated with TLR1-TLR2 ligand and apoptosis was examined by flow cytometry. […]

Compound	expression of CDKN1C, COL1A1, EGR1, ID1, PLAU and SERPINES [1]	inhibition of IRAK-4 [2]	decrease of phosphorylated-p65 levels [3]	p-ERK1/2 levels [3]	reduction of p-AKT expression levels [3]	reduction of p-mTOR expression levels [3]	apoptosis with 5′-fluorouracil ([4]; Malme3M, IRAK-1,-4 inhibitor with 0-100 nmol/L 5′-fluorouracil)	sensitivity to vinblastine (apoptosis) ([4]; Malme-3M, 2.5 μmol/L IRAK-1,-4 inhibitor with 0-200 nmol/L vinblastine, 48 h)	cisplatin's cytotoxicity ([4]; Malme-3M, IRAK-1,-4 inhibitor with 0-50 nmol/L cisplatin)	p-IRAK-1 or p-IRAK-4 expression levels [5]	vinblastine-induced apoptosis [6]
O=C(Nc1nc2ccccc2n1CCN1CCOCC1)c1cccc([N+](=O)[O-])c1 [IRAK-1,-4 inhibitor]	significantly up- or down-regulated	selectively inhibits	four-fold	did not alter	five-fold	approximately six-fold	appeared to enhance apoptosis	increased sensitivity	did not increase		
tripalmitoyl-S-(bis(palmitoyloxy)propyl)-Cys-Ser-(Lys)3-Lys [Pam3Cysk4]										remained unchanged	little effect
